Entries after “also recorded” stand apart in the source; their conditions may differ.
Experiments:
TNFα = TNFα production by LPS-stimulated human monocytes (ELISA); type: cell-based
Protocol: Isolation of human peripheral blood monocytes: Peripheral blood mononuclear cells (PBMCs) were isolated from residual source leukocytes (Bonfils Blood Center, CO) by density gradient centrifugation using Ficoll-Paque Plus (Pharmacia, Sweden).
To measure the impact of the flavones on cytokine production, PBMCs were resuspended to 4×10^6 /mL in complete medium, i.e., Dulbecco's Modified Eagle Medium containing 30% FCS, 2 mM glutamine, 100 U/mL Penicillin-G, and 100 μg/mL streptomycin. […] Nonadherent cells (lymphocytes) were separated from the plastic adherent cells (monocytes) by washing the wells twice with 200 μL of medium. The monocytes were cultured an additional 30 min in 100 μL of complete medium containing graded concentrations of the compound of interest and the cultures were then adjusted to contain […] LPS to stimulate cytokine production. Culture supernatants were harvested 14 h later, and cells were lysed by addition of 50 μL of Dulbecco's phosphate buffered saline containing 1% NP40. Culture supernatants were evaluated for TNFα, IL-1β, IL-6, IL-8, IL-10, and MIP-1α content using specific enzyme-linked immunosorbent assays (ELISA) purchased from R&D Systems. IL-1β was measured in cell lysates by ELISA. Lactate dehydrogenase (LDH) content of cell lysates was measured to determine compound effects on cell viability: To 50 μL of lysate were added 200 μL of 50 mM sodium pyrophosphate buffer (pH 8.9) containing 50 mM lactic acid and 4 mg/mL β-nicotinamide adenine dinucleotide (Sigma); rates of reduction of nicotinamide adenine dinucleotide were measured at room temperature at 340 nm.

IL-10 = IL-10 production by LPS-stimulated human monocytes (ELISA); type: cell-based
Protocol: (§1) Adherent purified human monocytes were cultured in the presence of graded concentrations of heptamethoxyflavone for 30 min. The monocyte cultures were then adjusted to contain 20 ng/mL LPS. After 14 h of culture, the cytokines TNFα, IL-6, IL-8, MIP-1α, and IL-10 were assayed in the culture supernatants and IL-1β was assayed in the cell lysates using specific ELISA assays as described below. Values expressed as the percent of cytokine produced in flavone-free cultures are the means and standard errors determined using monocytes isolated from three independent donors.
(§2) Isolation of human peripheral blood monocytes: Peripheral blood mononuclear cells (PBMCs) were isolated from residual source leukocytes (Bonfils Blood Center, CO) by density gradient centrifugation using Ficoll-Paque Plus (Pharmacia, Sweden). Monocytes were purified further by plastic adherence (see below) or by centrifugal elutriation as described previously (Manthey, C. L., et al., J. Leuk Biol., 64: 409-416 (1998)).
(§3) IL-1β was measured in cell lysates by ELISA.

MIP-1α = MIP-1α production by LPS-stimulated human monocytes (ELISA); type: cell-based
Protocol: as §1, §2, §3

IL-1β = IL-1β production by LPS-stimulated human monocytes (ELISA, cell lysates); type: cell-based
Protocol: as §1, §2, §3

IL-6 = IL-6 production by LPS-stimulated human monocytes (ELISA); type: cell-based
Protocol: as §1, §2, §3

IL-8 = IL-8 production by LPS-stimulated human monocytes (ELISA); type: cell-based
Protocol: as §1, §2, §3

TNFα mRNA = TNFα mRNA level by RT-PCR in LPS-stimulated monocytes; type: cell-based, human; conditions: graded concentrations, 20 ng/mL LPS, 90 min, GAPDH internal standard
Protocol: Primary elutriated human monocytes were cultured in the presence of graded concentrations of HMF for 30 min. The monocyte cultures were then adjusted to contain 20 ng/mL LPS. At 90 min of culture, monocytes were harvested by centrifugation, and RNA was isolated from the cell pellet. Relative levels of TNFα and the constitutively expressed glyceraldehyde 3-phosphate dehydrogenase (GAPDH) mRNA were determined by RT-PCR as described below.
Analysis of specific mRNA levels by reverse transcriptase-polymerase chain reaction (RT-PCR): Monocytes were purified from PBMC by centrifugal elutriation. Monocytes were resuspended to 5×10^6 /mL in complete medium and 2 mL of cell suspension were dispensed into FALCON 17×100 mm polypropylene culture tubes (Becton Dickinson). Cultures were adjusted to contain graded concentrations of HMF and cultured 30 min at 37° C. and 5% CO2. Cultures were then adjusted to contain 20 ng/mL LPS for an additional 90 min. […] Relative levels of TNFα and IL-1β mRNA were then measured by RT-PCR as previously described (Manthey, C. L., J. Leuk Biol. 1998, 64: 409-416). […] Radiolabeled products were resolved by agarose gel electrophoresis and quantified using a PhosphorImager (Molecular Dynamics, Sunnyvale, Calif.). […]

IL-1β mRNA = IL-1β mRNA level by RT-PCR in LPS-stimulated monocytes; type: cell-based, human; conditions: data not shown
Protocol: Analysis of specific mRNA levels by reverse transcriptase-polymerase chain reaction (RT-PCR): Monocytes were purified from PBMC by centrifugal elutriation. Monocytes were resuspended to 5×10^6 /mL in complete medium and 2 mL of cell suspension were dispensed into FALCON 17×100 mm polypropylene culture tubes (Becton Dickinson). Cultures were adjusted to contain graded concentrations of HMF and cultured 30 min at 37° C. and 5% CO2. Cultures were then adjusted to contain 20 ng/mL LPS for an additional 90 min. Culture media was then removed and monocytes were lysed in RNAzol (Teltext Inc., Friendswood, Tex.) and total RNA was isolated according to the manufacturer's instructions. Relative levels of TNFα and IL-1β mRNA were then measured by RT-PCR as previously described (Manthey, C. L., J. Leuk Biol. 1998, 64: 409-416). PCR was carried out in the presence of [α-^32 P]dCTP. Radiolabeled products were resolved by agarose gel electrophoresis and quantified using a PhosphorImager (Molecular Dynamics, Sunnyvale, Calif.). For these reactions, the following primer sets were used:
IL-1β, (5'): GACACATGGGATAACGAGGCT, (3'): ACGCAGGACAGGTACAGATTC.

[1] = tested on: type-IV phosphodiesterase semi-purified from U937 cells; assay: Phosphodiesterase cAMP SPA enzyme assay; type: biochemical; conditions: hydrolysis of cAMP; read-out: concentration inhibiting phosphodiesterase activity 50%
Protocol: PDE semipurified from U937 monocytic cells was evaluated for the ability to catalyze the hydrolysis of cAMP in the presence of graded concentrations of flavone, myricetin, and HMF as described below. The rates are plotted as percent of control-reactions, where no flavonoids were present. Testing flavones as phosphodiesterase inhibitors and inducers of cellular cyclic adenosine monophosphate (cAMP): The Phosphodiesterase cAMP SPA Enzyme Assay (Amersham, Arlington Heights, Ill.) was used to test the ability of flavones to inhibit cAMP hydrolysis catalyzed by phosphodiesterase. The phosphodiesterase used in this study was semi-purified from U937 cells, and was determined to be mostly the type-IV isoform based on sensitivity to selected isoform inhibitors (Trophy, T. J., J. Pharmacol. Experimental Therapeutics, 1195-1205 (1992)).

intracellular cAMP = assay: Cellular cAMP in human monocytes (EIA); type: cell-based; conditions: 100 μM, 30 min
Protocol: To test flavones for the ability to cause an increase in cellular cAMP, monocytes were purified from PBMC by centrifugal elutriation. Monocytes were resuspended to 5×10^6 /mL in complete medium and 2 mL cell suspension were dispensed into FALCON 17×100 mm polypropylene culture tubes (Becton Dickinson). The cells were precultured 2 h at 37° C. and 5% CO2, and then cultured an additional 30 min following adjusting culture media to contain 100 μM of the flavone of interest or 200 μM IBMX (3-isobutyl-1-methylxanthine). Cells were then collected by centrifugation, lysed in 300 μL of ice cold aqueous solution containing 10 mM HEPES (pH 7.6) and 1% NP40. The lysates were applied to 100 mg columns of Amprep SAX resin (Amersham). The columns were then rinsed with 1 mL of methanol and the cAMP was eluted in 600 μL of methanol containing 0.01 M HCl. The eluates were chilled on dry ice and dried under vacuum. The Amersham Biotrak cAMP EIA assay was used to measure cAMP content of residues resuspended in 400 μL of assay buffer.

[2] = cytokine suppression profile, HMF compared against IBMX (Table 2)

IC50 (TNFα; Monocyte, human monocytes, 30 min preculture with compound, LPS, 14 h, 30% FCS, read-out: IC50 for inhibition of TNFα production): 5 µM
IC50 (IL-10; Monocyte, monocytes from three independent human donors, LPS, 14 h, read-out: IC50 for inhibition of IL-10): 12.3 ± 3.5 µM
IC50 (MIP-1α; Monocyte, monocytes from three independent human donors, LPS, 14 h, read-out: IC50 for inhibition of MIP-1α): 7.3 ± 0.7 µM
IC50 [1]: 2 µM
SMILES: COc1ccc(-c2oc3c(OC)c(OC)c(OC)c(OC)c3c(=O)c2OC)cc1OC [HMF, 3,5,6,7,8,3',4'-heptamethoxyflavone]
inhibition of TNFα production (in words) (TNFα; LPS-stimulated human monocytes): potent inhibitor
inhibition of IL-10 production (in words) (IL-10; LPS-stimulated human monocytes): potent inhibitor; also recorded: inhibition
inhibition of MIP-1α production (in words) (MIP-1α; LPS-stimulated human monocytes): potent inhibitor
inhibition of lipopolysaccharide-induced expression of IL-1β (IL-1β; 100 μM): no inhibition
suppression of IL-1β production (IL-1β; [2]): neither suppressed
inhibition of lipopolysaccharide-induced expression of IL-6 (IL-6; 100 μM): no inhibition
activation at 100 µM (IL-6; Homo sapiens, Monocyte, 14 h, 100 μM, read-out: increase of IL-6 expression): 30%
suppression of IL-6 production (IL-6; [2]): neither suppressed
inhibition of lipopolysaccharide-induced expression of IL-8 (IL-8; 100 μM): no inhibition
suppression of IL-8 production (IL-8; [2]): neither suppressed
suppression of lipopolysaccharide-induced TNFα mRNA expression (TNFα mRNA): suppress; also recorded: selectively blocks
induction of IL-1β mRNA (IL-1β mRNA): not effected
increase of monocyte cAMP levels over media alone (in words) (intracellular cAMP): at least a doubling
intracellular cAMP level (intracellular cAMP; media alone 2.7±0.9): 5.7±1.8 pmol/10^7 cells

— patent US6184246A, “Inhibition of cytokine production by polymethoxylated flavones” (priority 1999, dated 2001)
